Test results: ChEMBL document CHEMBL4382216, “Asymmetric synthesis and biological evaluation of imidazole- and oxazole-containing synthetic lipoxin A4 mimetics (sLXms)” (Eur J Med Chem, 2019)

Key:
Type in all cases: functional
J774.1 [1] = experiment: Anti-inflammatory activity in mouse J774.1 cells assessed as reduction in LPS-stimulated TNFalpha level at 100 nM preincubated for 1 hr followed by LPS stimulation for 24 hrs by ELISA relative to control; parameters: scale not given: the % may be the effect or the level left
Mus musculus [2] = experiment: (§1) Anti-inflammatory activity in zymosan-induced C57BL/6J mouse peritonitis model assessed as PMN leukocytes level in peritoneal cavity at 43 ng, ip pretreated for 30 mins followed by zymosan treatment and redosing of test compound at 1 hr post zymosan addition and measured at 24 hrs post zymosan addition by flow cytometry (reference value: 100%)
Mus musculus [3] = experiment: as §1, with “reduction in total cell count” for “PMN leukocytes level”, “125” for “43”, “cytometry relative to basal level” for “cytometry”, “14)” for “100%)”
Mus musculus [4] = experiment: as §1, with “total cell count” for “PMN leukocytes level”, “125” for “43”
Mus musculus [5] = experiment: as §1, with “125” for “43”
J774.1 [6] = experiment: Anti-inflammatory activity in mouse J774.1 cells assessed as reduction in LPS-stimulated TNFalpha level at 10 nM preincubated for 1 hr followed by LPS stimulation for 24 hrs by ELISA relative to control; parameters: scale not given: the % may be the effect or the level left

SMILES	Activity (J774.1 [1])	Emax (Mus musculus [2])	fold change (FC) (Mus musculus [3])	Emax (Mus musculus [4])	Emax (Mus musculus [5])	Activity (J774.1 [6])
CCCCC[C@H](O)c1nc(-c2ccccc2)n(-c2ccccc2)c1/C=C/[C@@H](O)[C@@H](O)CCCC(=O)OC	41%	18.2%				
CCCCC[C@H](O)/C=C/C=C\C=C\C=C\[C@@H](O)[C@@H](O)CCCC(=O)O [LIPOXIN A4]			5	35.3%	35.9%	
CCCCC[C@@H](O)c1nc(-c2ccccc2)n(-c2ccccc2)c1/C=C/[C@@H](O)[C@@H](O)CCCC(=O)OC		45.5%				30%
